Assay [1] has as its target T1, recombinant human SYK360-635 (Homo sapiens, UniProt P43405).
T1 construct: made in house
Kind of assay: Determination of IC50 of Spleen Tyrosine Kinase (SYK) inhibition, 33P ATP filtration assay. Type of assay: biochemical. Conditions: SYK aa 360-635 0.5 nM; ATP 20 μM, peptide 5 μM, 0.1% BSA; read-out: SYK_ENZYME_FILTRATION/v1, BSA.

The target in assay [2] is T2, JAK3: Recombinant human kinase domain (Homo sapiens, UniProt P52333).
T2 construct: JAK3: Recombinant human kinase domain from Millipore (Cat #14-629) or prepared; purchased Millipore 14-629
T2 sequence (P52333 822-1111 limits assumed): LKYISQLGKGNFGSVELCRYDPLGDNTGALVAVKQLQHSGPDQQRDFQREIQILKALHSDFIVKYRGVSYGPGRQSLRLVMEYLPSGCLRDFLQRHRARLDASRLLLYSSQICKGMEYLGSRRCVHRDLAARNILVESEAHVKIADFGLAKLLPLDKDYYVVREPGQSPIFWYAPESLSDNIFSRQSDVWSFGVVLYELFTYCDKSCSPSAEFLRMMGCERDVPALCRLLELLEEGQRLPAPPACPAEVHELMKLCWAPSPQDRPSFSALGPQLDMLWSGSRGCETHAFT
Kind of assay: Determination of IC50 of Janus Kinase (JAK) inhibition, radioactive end-point 33P-ATP assay, JAK3. Conditions: ATP 1.5 uM, peptide 50 uM, 20 minutes, read-out: JAK3-INHIB-DR/v1~NO ADDITIVE~Enzyme_Conc = 100. Type of assay: biochemical.

With `Cn1nc(-c2cnc3[nH]cc(C(=O)N[C@H]4CC[C@@H](O)C4)c3n2)c2ccc(F)cc21` (relative stereo) [Example I-46, 2-(6-Fluoro-1-methyl-1H-indazol-3-yl)-5H-pyrrolo[2,3-b]pyrazine-7-carboxylic acid (cis-3-hydroxy-cyclopentyl)-amide], the results for the IC50 in assay [1] and in assay [2] were 10.3 nM and 2.86 nM, respectively.
In the case of `Cn1nc(-c2cnc3[nH]cc(C(=O)N[C@H]4CC[C@H](O)C4)c3n2)c2ccc(F)cc21` (relative stereo) [Example I-47, 2-(6-Fluoro-1-methyl-1H-indazol-3-yl)-5H-pyrrolo[2,3-b]pyrazine-7-carboxylic acid (trans-3-hydroxy-cyclopentyl)-amide], the IC50 in assay [1] stood at 21.9 nM; in assay [2], 5.31 nM.
The like results for `Cn1nc(-c2cnc3[nH]cc(C(=O)N[C@H]4CC[C@@H](CC#N)C4)c3n2)c2ccc(F)cc21` (relative stereo) [Example I-57, 2-(6-Fluoro-1-methyl-1H-indazol-3-yl)-5H-pyrrolo[2,3-b]pyrazine-7-carboxylic acid (cis-3-cyanomethyl-cyclopentyl)-amide] were, in that order, 44.4 nM and 10.6 nM.
For the compound `Cn1nc(-c2cnc3[nH]cc(C(=O)N[C@@H]4CCC[C@@H](O)C4)c3n2)c2ccc(Cl)cc21` (relative stereo) [Example I-148, 2-(6-Chloro-1-methyl-1H-indazol-3-yl)-5H-pyrrolo[2,3-b]pyrazine-7-carboxylic acid (trans-3-hydroxy-cyclohexyl)-amide], the IC50 was found to be 19.3 nM in assay [1] and 55.5 nM in assay [2].
The like results for `Cn1nc(-c2cnc3[nH]cc(C(=O)N[C@@H]4CCC[C@H](O)C4)c3n2)c2ccc(Cl)cc21` (relative stereo) [Example I-149, 2-(6-Chloro-1-methyl-1H-indazol-3-yl)-5H-pyrrolo[2,3-b]pyrazine-7-carboxylic acid (cis-3-hydroxy-cyclohexyl)-amide] were, in that order, 52 nM and 10.3 nM.
The like results for `Cn1nc(-c2cnc3[nH]cc(C(=O)N[C@@H]4CCC[C@@H](C#N)C4)c3n2)c2ccc(Cl)cc21` (relative stereo) [Example I-156, 2-(6-Chloro-1-methyl-1H-indazol-3-yl)-5H-pyrrolo[2,3-b]pyrazine-7-carboxylic acid (trans-3-cyano-cyclohexyl)-amide] were, in that order, 85.1 nM and 5.47 nM.
For `Cn1nc(-c2cnc3[nH]cc(C(=O)N[C@@H]4CCC[C@H](C#N)C4)c3n2)c2ccc(Cl)cc21` (relative stereo) [Example I-167, 2-(6-Chloro-1-methyl-1H-indazol-3-yl)-5H-pyrrolo[2,3-b]pyrazine-7-carboxylic acid (cis-3-cyano-cyclohexyl)-amide] the same measures were 75 nM and 197 nM.
In the case of `C[C@H](O)[C@H](C)NC(=O)c1c[nH]c2ncc(-c3nn(C)c4cc(Cl)ccc34)nc12` (relative stereo) [Example I-201, 2-(6-Chloro-1-methyl-1H-indazol-3-yl)-5H-pyrrolo[2,3-b]pyrazine-7-carboxylic acid (trans-2-hydroxy-1-methyl-propyl)-amide], the IC50 in assay [1] was 7.57 nM; in assay [2], 10.5 nM.
For `CC(NC(=O)c1c[nH]c2ncc(-c3nn(C)c4cc(F)ccc34)nc12)C(O)C1CCOCC1` (single isomer, unassigned) [Example I-203, 2-(6-Fluoro-1-methyl-1H-indazol-3-yl)-5H-pyrrolo[2,3-b]pyrazine-7-carboxylic acid [cis-2-hydroxy-1-methyl-2-(tetrahydro-pyran-4-yl)-ethyl]-amide] the same measures were 197 nM and 263 nM.
For `CC(NC(=O)c1c[nH]c2ncc(-c3nn(C)c4cc(F)ccc34)nc12)C(O)C1CCOCC1` (single isomer, unassigned) [Example I-204, 2-(6-Fluoro-1-methyl-1H-indazol-3-yl)-5H-pyrrolo[2,3-b]pyrazine-7-carboxylic acid [trans-2-hydroxy-1-methyl-2-(tetrahydro-pyran-4-yl)-ethyl]-amide] the same measures were 205 nM and 217 nM.
The like results for `C[C@@H](NC(=O)c1c[nH]c2ncc(-c3nn(C)c4cc(Cl)ccc34)nc12)c1ccccc1` [Example I-25, 2-(6-Chloro-1-methyl-1H-indazol-3-yl)-5H-pyrrolo[2,3-b]pyrazine-7-carboxylic acid ((R)-1-phenyl-ethyl)-amide] were, in that order, 54.2 nM and 19.2 nM.
Take `Cc1ccc2c(-c3cnc4[nH]cc(C(=O)N[C@H](C)C(=O)N5CC(C#N)C5)c4n3)ncn2c1` [Example I-31, 2-(6-Methyl-imidazo[1,5-a]pyridin-1-yl)-5H-pyrrolo[2,3-b]pyrazine-7-carboxylic acid [(R)-2-(3-cyano-azetidin-1-yl)-1-methyl-2-oxo-ethyl]-amide]: the IC50 was determined as 53.1 nM in assay [1] and 0.335 nM in assay [2].
On to `Cn1nc(-c2cnc3[nH]cc(C(=O)N[C@@H]4CC[C@@H](C#N)C4)c3n2)c2ccc(Cl)cc21` [Example I-36, 2-(6-Chloro-1-methyl-1H-indazol-3-yl)-5H-pyrrolo[2,3-b]pyrazine-7-carboxylic acid ((1R,3R)-3-cyano-cyclopentyl)-amide], for which the IC50 in assay [1] came to 27.2 nM; in assay [2], 19 nM.
With `Cn1nc(-c2cnc3[nH]cc(C(=O)NC4CCC(N)C4)c3n2)c2ccc(Cl)cc21` (stereo not shown) [Example I-37, 2-(6-Chloro-1-methyl-1H-indazol-3-yl)-5H-pyrrolo[2,3-b]pyrazine-7-carboxylic acid (3-amino-cyclopentyl)-amide], the IC50 in assay [1] came to 6.4 nM; in assay [2] it was 39.2 nM.
`Cn1nc(-c2cnc3[nH]cc(C(=O)NC4CCC(NS(C)(=O)=O)C4)c3n2)c2ccc(Cl)cc21` (stereo not shown) [Example I-38, 2-(6-Chloro-1-methyl-1H-indazol-3-yl)-5H-pyrrolo[2,3-b]pyrazine-7-carboxylic acid (3-methanesulfonylamino-cyclopentyl)-amide]: the IC50 in assay [1] was 15.9 nM; in assay [2], 9.01 nM.
For `COC[C@H](C)NC(=O)c1c[nH]c2ncc(-c3nc(Cl)n4cc(F)ccc34)nc12` [Example I-39, 2-(3-Chloro-6-fluoro-imidazo[1,5-a]pyridin-1-yl)-5H-pyrrolo[2,3-b]pyrazine-7-carboxylic acid ((S)-2-methoxy-1-methyl-ethyl)-amide] the same measures were 243 nM and 5.81 nM.
The like results for `COC[C@H](C)NC(=O)c1c[nH]c2ncc(-c3ncn4cc(F)cc(F)c34)nc12` [Example I-40, 2-(6,8-Difluoro-imidazo[1,5-a]pyridin-1-yl)-5H-pyrrolo[2,3-b]pyradine-7-carboxylic acid ((S)-2-methoxy-1-methyl-ethyl)-amide] were, in that order, 994 nM and 10.2 nM.
As to `C[C@@H](NC(=O)c1c[nH]c2ncc(-c3nn(C)c4cc(F)ccc34)nc12)C(C)(C)F` [Example I-44, 2-(6-Fluoro-1-methyl-1H-indazol-3-yl)-5H-pyrrolo[2,3-b]pyrazine-7-carboxylic acid ((R)-2-fluoro-1,2-dimethyl-propyl)-amide], the IC50 in assay [1] stood at 16 nM; in assay [2] it was 13.9 nM.
The like results for `C[C@H](NC(=O)c1c[nH]c2ncc(-c3nn(C)c4cc(F)ccc34)nc12)C(C)(C)C` [Example I-45, 2-(6-Fluoro-1-methyl-1H-indazol-3-yl)-5H-pyrrolo[2,3-b]pyrazine-7-carboxylic acid ((S)-1,2,2-trimethyl-propyl)-amide] were, in that order, 11 nM and 0.535 nM.
The like results for `CC(NC(=O)c1c[nH]c2ncc(-c3nn(C)c4cc(Cl)ccc34)nc12)c1ncco1` (stereo not shown) [Example I-48, 2-(6-Chloro-1-methyl-1H-indazol-3-yl)-5H-pyrrolo[2,3-b]pyrazine-7-carboxylic acid (1-oxazol-2-yl-ethyl)-amide] were, in that order, 22.1 nM and 4.91 nM.
For `CC(NC(=O)c1c[nH]c2ncc(-c3nn(C)c4cc(F)ccc34)nc12)c1cocn1` (stereo not shown) [Example I-52, 2-(6-Fluoro-1-methyl-1H-indazol-3-yl)-5H-pyrrolo[2,3-b]pyrazine-7-carboxylic acid (1-oxazol-4-yl-ethyl)-amide] the same measures were 19.4 nM and 8.87 nM.
As for `Cc1cc(C(C)NC(=O)c2c[nH]c3ncc(-c4nn(C)c5cc(F)ccc45)nc23)no1` (stereo not shown) [Example I-54, 2-(6-Fluoro-1-methyl-1H-indazol-3-yl)-5H-pyrrolo[2,3-b]pyrazine-7-carboxylic acid [1-(5-methyl-isoxazol-3-yl)-ethyl]-amide], the IC50 amounted to 77.7 nM in assay [1] and 14 nM in assay [2].
The like results for `CC(NC(=O)c1c[nH]c2ncc(-c3nn(C)c4cc(F)ccc34)nc12)c1ccno1` (stereo not shown) [Example I-55, 2-(6-Fluoro-1-methyl-1H-indazol-3-yl)-5H-pyrrolo[2,3-b]pyrazine-7-carboxylic acid (1-isoxazol-5-yl-ethyl)-amide] were, in that order, 56.4 nM and 16.9 nM.
For `C[C@@H](NC(=O)c1c[nH]c2ncc(-c3nn(C)c4cc(F)ccc34)nc12)C(C)(F)F` [Example I-56, 2-(6-Fluoro-1-methyl-1H-indazol-3-yl)-5H-pyrrolo[2,3-b]pyrazine-7-carboxylic acid ((R)-2,2-difluoro-1-methyl-propyl)-amide] the same measures were 7.23 nM and 11.7 nM.
Regarding `Cn1nc(-c2cnc3[nH]cc(C(=O)NC(C)(C)CO)c3n2)c2ccc(F)cc21` [Example I-363, 2-(6-Fluoro-1-methyl-1H-indazol-3-yl)-5H-pyrrolo[2,3-b]pyrazine-7-carboxylic acid (2-hydroxy-1,1-dimethyl-ethyl)-amide], in assay [2], the IC50 is more than 1000 nM.

(Values after patent publication US8658646B2, “Pyrrolopyrazine kinase inhibitors” (Hoffmann-LaRoche Inc., priority 2011, dated 2014).)
